Where two headings read alike, the source gives them in different places.
What was measured:
[1] = molecular target: T1, SARS-CoV-2 nsp3-mac1 (Severe acute respiratory syndrome coronavirus 2, UniProt P0DTD1); experiment: biochemical; set-up: SARS-CoV-2 nsp3 macrodomain TR-FRET single point, per cent inhibition, n=2
[2] = molecular target: T1, SARS-CoV-2 nsp3-mac1; experiment: biochemical; format: biochemical; conditions: SARS-CoV-2 nsp3 macrodomain TR-FRET single point, concentration 50.0 uM

| Compound | perc_inhibition_mean [2] [%] | also measured |
| --- | --- | --- |
| c1ccc([C@@H](CNc2ncnc3n[nH]cc23)N2CCOCC2)cc1 [ASAP-0000001] | -0.781 | inhibition at 50 µM ([1]; read-out: perc_inhibition_mean, batch_name=ASAP-0000001-001): -0.781% |
| COc1cccc(Cl)c1CNc1ncnc2[nH]ncc12 [ASAP-0000002] | -1.826 | inhibition at 50 µM ([1]; read-out: perc_inhibition_mean, batch_name=ASAP-0000002-001): -1.83% |
| c1ccc2sc(CCNc3ncnc4nc[nH]c34)nc2c1 [ASAP-0000003] | -4.211 | inhibition at 50 µM ([1]; read-out: perc_inhibition_mean, batch_name=ASAP-0000003-001): -4.21% |
| CC(C)(CCNc1ncnc2[nH]ccc12)S(C)(=O)=O [ASAP-0000004] | 0.75 | inhibition at 50 µM ([1]; read-out: perc_inhibition_mean, batch_name=ASAP-0000004-001): 0.75% |
| C=CCn1c(Sc2ncnc3[nH]ccc23)nc2sccc2c1=O [ASAP-0000005] | 6.305 | inhibition at 50 µM ([1]; read-out: perc_inhibition_mean, batch_name=ASAP-0000005-001): 6.3% |
| c1nc(N2CC[C@@H](n3cncn3)C2)c2cc[nH]c2n1 [ASAP-0000006] | -1.543 | inhibition at 50 µM ([1]; read-out: perc_inhibition_mean, batch_name=ASAP-0000006-001): -1.54% |
| c1ccc(CN2CCO[C@@H](CNc3ncnc4nc[nH]c34)C2)cc1 [ASAP-0000007] | -2.441 | inhibition at 50 µM ([1]; read-out: perc_inhibition_mean, batch_name=ASAP-0000007-001): -2.44% |
| CC(C)NC(=O)[C@@H]1CCCN(c2ncnc3[nH]ccc23)C1 [ASAP-0000008] | 1.78 | inhibition at 50 µM ([1]; read-out: perc_inhibition_mean, batch_name=ASAP-0000008-001): 1.78% |
| c1ccc(OC[C@@H]2CCCN2c2ncnc3[nH]ccc23)cc1 [ASAP-0000009] | -0.466 | inhibition at 50 µM ([1]; read-out: perc_inhibition_mean, batch_name=ASAP-0000009-001): -0.466% |
| O=C(Nc1cnc2[nH]ncc2c1)c1noc2c1CCCC2 [ASAP-0000010] | -1.398 | inhibition at 50 µM ([1]; read-out: perc_inhibition_mean, batch_name=ASAP-0000010-001): -1.4% |
| O=S(=O)(Nc1cnc2[nH]ncc2c1)c1cnn(C2CCCC2)c1 [ASAP-0000011] | 0.415 | inhibition at 50 µM ([1]; read-out: perc_inhibition_mean, batch_name=ASAP-0000011-001): 0.415% |
| O=C(Nc1cnc2[nH]ncc2c1)c1ccccc1CN1CCOCC1 [ASAP-0000012] | -3.239 | inhibition at 50 µM ([1]; read-out: perc_inhibition_mean, batch_name=ASAP-0000012-001): -3.24% |
| Cc1cnc(CCNc2ncnc3[nH]ncc23)c(C)c1 [ASAP-0000013] | 4.342 | inhibition at 50 µM ([1]; read-out: perc_inhibition_mean, batch_name=ASAP-0000013-001): 4.34% |
| Cc1cccc(OCCNc2ncnc3nc[nH]c23)c1 [ASAP-0000014] | 3.91 | inhibition at 50 µM ([1]; read-out: perc_inhibition_mean, batch_name=ASAP-0000014-001): 3.91% |
| Fc1ccc(OC(F)F)c(CNc2cnc3[nH]ncc3c2)c1 [ASAP-0000015] | -6.672 | inhibition at 50 µM ([1]; read-out: perc_inhibition_mean, batch_name=ASAP-0000015-002): -6.67% |
| O=C(Nc1cnc2[nH]ncc2c1)C1CCN(c2ccc3nncn3n2)CC1 [ASAP-0000016] | 16.966 | inhibition at 50 µM ([1]; read-out: perc_inhibition_mean, batch_name=ASAP-0000016-001): 17% |
| NS(=O)(=O)N1CCCN(c2ncnc3[nH]c(I)cc23)CC1 [ASAP-0000017] | 2.291 | inhibition at 50 µM ([1]; read-out: perc_inhibition_mean, batch_name=ASAP-0000017-001): 2.29% |
| Cc1ccc(S(=O)(=O)Nc2ccccc2F)cc1C(=O)Nc1cnc2[nH]ncc2c1 [ASAP-0000018] | 0.764 | inhibition at 50 µM ([1]; read-out: perc_inhibition_mean, batch_name=ASAP-0000018-001): 0.764% |
| CNC(=O)c1cccc(CNC(=O)c2ncnc3[nH]ccc23)c1 [ASAP-0000019] | -5.906 | inhibition at 50 µM ([1]; read-out: perc_inhibition_mean, batch_name=ASAP-0000019-001): -5.91% |
| Cc1[nH]c2ncnc(NC(=O)C3CCC(F)(F)CC3)c2c1C [ASAP-0000020] | 2.148 | inhibition at 50 µM ([1]; read-out: perc_inhibition_mean, batch_name=ASAP-0000020-001): 2.15% |
| Fc1ccc(Oc2cc(CNc3ncnc4nc[nH]c34)ccn2)cc1 [ASAP-0000021] | 2.011 | inhibition at 50 µM ([1]; read-out: perc_inhibition_mean, batch_name=ASAP-0000021-001): 2.01% |
| c1cc(CNc2cnc3[nH]ncc3c2)cc(-c2ccncc2)c1 [ASAP-0000022] | -17.179 | inhibition at 50 µM ([1]; read-out: perc_inhibition_mean, batch_name=ASAP-0000022-001): -17.2% |

| Compound | perc_inhibition_mean [2] [%] | also measured |
| --- | --- | --- |
| O=C(Nc1cnc2[nH]ncc2c1)c1ccc(Oc2cccc(Br)c2)nc1 [ASAP-0000023] | -0.183 | inhibition at 50 µM ([1]; read-out: perc_inhibition_mean, batch_name=ASAP-0000023-001): -0.183% |
| C#Cc1cccc(NC(=O)CN(C)c2ncnc3[nH]ccc23)c1 [ASAP-0000024] | 4.398 | inhibition at 50 µM ([1]; read-out: perc_inhibition_mean, batch_name=ASAP-0000024-001): 4.4% |
| CN(CCOc1ccccc1)c1ncnc2[nH]ccc12 [ASAP-0000026] | -2.258 | inhibition at 50 µM ([1]; read-out: perc_inhibition_mean, batch_name=ASAP-0000026-001): -2.26% |
| Cc1[nH]c2ncnc(NC(=O)c3ncn(-c4ccccc4)n3)c2c1C [ASAP-0000027] | 7.104 | inhibition at 50 µM ([1]; read-out: perc_inhibition_mean, batch_name=ASAP-0000027-001): 7.1% |
| COc1cccc2cc(CNc3cnc4[nH]ncc4c3)oc12 [ASAP-0000028] | -4.293 | inhibition at 50 µM ([1]; read-out: perc_inhibition_mean, batch_name=ASAP-0000028-001): -4.29% |
| COc1cc(CNc2cnc3[nH]ncc3c2)ccc1Cl [ASAP-0000029] | -2.794 | inhibition at 50 µM ([1]; read-out: perc_inhibition_mean, batch_name=ASAP-0000029-001): -2.79% |
| FC(F)(F)c1ccccc1[C@@H]1CN(c2ncnc3[nH]ccc23)CCO1 [ASAP-0000030] | -5.311 | inhibition at 50 µM ([1]; read-out: perc_inhibition_mean, batch_name=ASAP-0000030-001): -5.31% |
| O=C(Cc1ccc(F)cc1)Nc1ccc2[nH]ncc2c1 [ASAP-0000032] | 1.139 | inhibition at 50 µM ([1]; read-out: perc_inhibition_mean, batch_name=ASAP-0000032-001): 1.14% |
| CC(C)(c1noc(-c2ncnc3[nH]ccc23)n1)S(C)(=O)=O [ASAP-0000033] | -0.756 | inhibition at 50 µM ([1]; read-out: perc_inhibition_mean, batch_name=ASAP-0000033-001): -0.756% |
| O=C(CNc1ncnc2[nH]ccc12)N1CCc2ccccc21 [ASAP-0000034] | 1.193 | inhibition at 50 µM ([1]; read-out: perc_inhibition_mean, batch_name=ASAP-0000034-001): 1.19% |
| CN1CCOc2cccc(NC(=O)Nc3cnc4[nH]ncc4c3)c21 [ASAP-0000035] | -6.537 | inhibition at 50 µM ([1]; read-out: perc_inhibition_mean, batch_name=ASAP-0000035-001): -6.54% |
| c1ccc2sc(CNc3ncnc4[nH]ccc34)nc2c1 [ASAP-0000036] | -0.671 | inhibition at 50 µM ([1]; read-out: perc_inhibition_mean, batch_name=ASAP-0000036-001): -0.671% |
| O=C1CN(c2ccc(Nc3ncnc4[nH]ccc34)cn2)CCN1 [ASAP-0000037] | -16.793 | inhibition at 50 µM ([1]; read-out: perc_inhibition_mean, batch_name=ASAP-0000037-001): -16.8% |
| Cc1cccc2oc(CCNc3ncnc4[nH]ccc34)nc12 [ASAP-0000038] | -3.259 | inhibition at 50 µM ([1]; read-out: perc_inhibition_mean, batch_name=ASAP-0000038-001): -3.26% |
| O=C(OCC(Br)=C1CCOCC1)c1ncnc2[nH]ccc12 [ASAP-0000039] | -5.359 | inhibition at 50 µM ([1]; read-out: perc_inhibition_mean, batch_name=ASAP-0000039-001): -5.36% |
| CS(=O)(=O)N1CC[C@@H](COC(=O)c2ncnc3[nH]ccc23)C1 [ASAP-0000040] | 0.187 | inhibition at 50 µM ([1]; read-out: perc_inhibition_mean, batch_name=ASAP-0000040-001): 0.187% |
| Cc1nc(C)c(CC(=O)Nc2cnc3[nH]ncc3c2)c(=O)[nH]1 [ASAP-0000041] | 4.825 | inhibition at 50 µM ([1]; read-out: perc_inhibition_mean, batch_name=ASAP-0000041-001): 4.83% |
| O=C(Cc1n[nH]c2c1CCCC2)Nc1cnc2[nH]ncc2c1 [ASAP-0000042] | -1.262 | inhibition at 50 µM ([1]; read-out: perc_inhibition_mean, batch_name=ASAP-0000042-001): -1.26% |
| Cc1noc([C@@H]2CCCN(c3ncnc4[nH]ccc34)C2)n1 [ASAP-0000043] | 1.916 | inhibition at 50 µM ([1]; read-out: perc_inhibition_mean, batch_name=ASAP-0000043-001): 1.92% |
| NC(=O)c1ccccc1NC(=O)c1ncnc2[nH]ccc12 [ASAP-0000044] | -2.586 | inhibition at 50 µM ([1]; read-out: perc_inhibition_mean, batch_name=ASAP-0000044-001): -2.59% |
| OC[C@@H]1CN(c2ncnc3nc[nH]c23)CCC1(F)F [ASAP-0000045] | 1.75 | inhibition at 50 µM ([1]; read-out: perc_inhibition_mean, batch_name=ASAP-0000045-001): 1.75% |
| Cc1nc(Nc2cnn(CCO)c2)c2cc[nH]c2n1 [ASAP-0000046] | -6.147 | inhibition at 50 µM ([1]; read-out: perc_inhibition_mean, batch_name=ASAP-0000046-001): -6.15% |
